# Results as given in ChEMBL document CHEMBL1201862, “PubChem BioAssay data set” (2004).
#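 Each compound was tested at five concentrations against cells in 96-well plates for 48 hours. GI50: concentration for 50% inhibition of growth.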 Activity calls are given as the source filed them. Rule as the data show it: active = GI50 up to about 1.1 µM and inactive = higher.
# How the values were obtained:
# Assay in all cases: DTP human tumour cell line panel, 48 h
# TK-10 = test system: TK-10
# NCI-H460 = test system: NCI-H460
# EKVX = test system: EKVX
# HCT-116 = test system: HCT-116
# SK-MEL-2 = test system: SK-MEL-2
# NCI-H522 = test system: NCI-H522
# A549 = test system: A549
# RPMI-8226 = test system: RPMI-8226
# SNB-19 = test system: SNB-19
# OVCAR-5 = test system: OVCAR-5
# UO-31 = test system: UO-31
# SK-MEL-28 = test system: SK-MEL-28
# SR = test system: SR
# MCF7 = test system: MCF7
# MDA-MB-231 = test system: MDA-MB-231
# IGROV-1 = test system: IGROV-1
# SNB-75 = test system: SNB-75
# OVCAR-4 = test system: OVCAR-4
# Hs-578T = test system: Hs-578T
# NCI/ADR-RES = test system: NCI/ADR-RES
SMILES,GI50 (TK-10),GI50 (NCI-H460),GI50 (EKVX),GI50 (HCT-116),GI50 (SK-MEL-2),GI50 (NCI-H522),GI50 (A549),GI50 (RPMI-8226),GI50 (SNB-19),GI50 (OVCAR-5),GI50 (UO-31),GI50 (SK-MEL-28),GI50 (SR),GI50 (MCF7),GI50 (MDA-MB-231),GI50 (IGROV-1),GI50 (SNB-75),GI50 (OVCAR-4),GI50 (Hs-578T),GI50 (NCI/ADR-RES)
O=C1Oc2ccccc2C(=O)/C1=C/N1C(=O)N/C(=C\c2ccccc2O)C1=O,60.5 µM (inactive),35.2 µM (inactive),> 67.8 µM (inactive),36.6 µM (inactive),> 56.9 µM (inactive),55.5 µM (inactive),58.9 µM (inactive),43 µM (inactive),> 100 µM (inactive),> 100 µM (inactive),39 µM (inactive),> 84.9 µM (inactive),32.3 µM (inactive),61.1 µM (inactive),36.9 µM (inactive),48.8 µM (inactive),> 78.5 µM (inactive),55.3 µM (inactive),> 53.1 µM (inactive),65.3 µM (inactive)
N=C(N)SCc1cccc(-c2nc3ccccc3c(=O)o2)c1,> 100 µM (inactive),> 100 µM (inactive),> 100 µM (inactive),> 100 µM (inactive),> 100 µM (inactive),> 100 µM (inactive),> 100 µM (inactive),> 100 µM (inactive),> 100 µM (inactive),> 100 µM (inactive),> 100 µM (inactive),> 100 µM (inactive),95.5 µM (inactive),> 100 µM (inactive),> 100 µM (inactive),> 100 µM (inactive),> 100 µM (inactive),> 100 µM (inactive),> 100 µM (inactive),> 100 µM (inactive)
O=C(O)C1OC(n2cc(F)c(=O)[nH]c2=O)CC1O (stereo not given),> 100 µM (inactive),0.447 µM (active),> 82.8 µM (inactive),23.1 µM (inactive),> 100 µM (inactive),25.9 µM (inactive),2.97 µM (inactive),61.7 µM (inactive),52.5 µM (inactive),> 100 µM (inactive),18.6 µM (inactive),53.1 µM (inactive),6.11 µM (inactive),0.9 µM (active),> 39.1 µM (inactive),> 100 µM (inactive),6.11 µM (inactive),> 100 µM (inactive),> 78.7 µM (inactive),13.2 µM (inactive)
COC(=O)[C@H](C)[C@@H]1CC[C@](C)(CCC2=C(C)CCCC2(C)C)OO1,> 25 µM (inactive),> 25 µM (inactive),> 25 µM (inactive),> 25 µM (inactive),> 25 µM (inactive),16.1 µM (inactive),> 25 µM (inactive),> 25 µM (inactive),> 25 µM (inactive),> 25 µM (inactive),23.7 µM (inactive),> 25 µM (inactive),> 25 µM (inactive),> 25 µM (inactive),> 25 µM (inactive),> 25 µM (inactive),> 25 µM (inactive),> 25 µM (inactive),> 25 µM (inactive),> 25 µM (inactive)
